In patent US6949536B2, “Sulfonylbenzene compounds as anti-inflammatory/analgesic agents” (Pfizer, Inc., priority 1998, dated 2005):

Structure (SMILES) | melting point [°C]
CC(=O)Nc1cnn(-c2ccc(S(C)(=O)=O)c(F)c2)c1-c1ccc(-c2cscn2)cc1 [Example 164, N-[1-[3-Fluoro-4-(methylsulfonyl)phenyl]-5-[4-(1,3-thiazol-4-yl)phenyl]-1H-pyrazol-4-yl]acetamide] | 225.2
CC1(C)OC(=O)C(c2ccc(-c3cscn3)cc2)=C1c1ccc(S(C)(=O)=O)cc1 [Example 166, 5,5-Dimethyl-4-[4-(methylsulfonyl)phenyl]-3-[4-(1,3-thiazol-4-yl)phenyl]-2(5H)-furanone] | 215.8
NS(=O)(=O)c1ccc(C2=C(c3ccc(-c4cscn4)cc3)C(=O)OC2)cc1F [Example 167, 2-Fluoro-4-[5-oxo-4-[4-(1,3-thiazol-4-yl)phenyl]-2,5-dihydro-3-furanyl]benzenesulfonamide] | 194.2
Cc1onc(-c2ccc(-c3cscn3)cc2)c1-c1ccc(S(C)(=O)=O)c(F)c1 [Example 168, 4-[3-Fluoro-4-(methylsulfonyl)phenyl]-5-methyl-3-[4-(1,3-thiazol-4-yl)phenyl]isoxazole] | 130
Cc1nc(-c2ccc(-c3cscn3)cc2)c(-c2ccc(S(C)(=O)=O)c(F)c2)o1 [Example 169, 5-[3-Fluoro-4-(methylsulfonyl)phenyl]-2-methyl-4-[4-(1,3-thiazol-4-yl)phenyl]-1,3-oxazole] | 196 to 197
Cc1cc(-c2noc(C)c2-c2ccc(S(C)(=O)=O)c(F)c2)ccc1-c1cscn1 [Example 170, 4-[3-Fluoro-4-(methylsulfonyl)phenyl]-5-methyl-3-[3-methyl-4-(1,3-thiazol-4-yl)phenyl]isoxazole] | 99.5
Cc1onc(-c2ccc(-c3cscn3)cc2)c1-c1ccc(S(N)(=O)=O)cc1 [Example 171, 4-{5-Methyl-3-[4-(1,3-thiazol-4-yl)phenyl]-4-isoxazolyl}benzenesulfonamide] | 112 to 115
Cc1onc(-c2ccc(-c3cscn3)cc2)c1-c1ccc(S(N)(=O)=O)c(F)c1 [Example 172, 2-Fluoro-4-{5-methyl-3-[4-(1,3-thiazol-4-yl)phenyl]-4-isoxazolyl}benzenesulfonamide] | 216
Cc1nc(-c2ccc(-c3cscn3)c(C)c2)c(-c2ccc(S(C)(=O)=O)c(F)c2)o1 [Example 173, 5-[3-Fluoro-4-(methylsulfonyl)phenyl]-2-methyl-4-[3-methyl-4-(1,3-thiazol-4-yl)phenyl]-1,3-oxazole] | 177 to 178
NS(=O)(=O)c1ccc(-n2nc(C(F)(F)F)cc2-c2ccc(-c3cscn3)c(C(F)(F)F)c2)cc1F [Example 176, 2-Fluoro-4-[5-[4-(1,3-thiazol-4-yl)-3-(trifluoromethyl)phenyl]-3-(trifluoromethyl)-1H-pyrazol-1-yl]benzenesulfonamide] | 140 to 142
Cc1cc(-c2nc(C(F)(F)F)cn2-c2ccc(S(C)(=O)=O)c(F)c2)ccc1-c1cscn1 [Example 178, 1-[3-Fluoro-4-(methylsulfonyl)phenyl]-2-[3-methyl-4-(4-thiazolyl)phenyl]-4-trifluoromethyl-1H-imidazole] | 197 to 198

Further lines, results first:

melting point [°C] | Structure (SMILES)
145 to 147 | Cc1cn(-c2ccc(S(N)(=O)=O)c(F)c2)c(-c2ccc(-c3cscn3)cc2)n1 [Example 179, 2-Fluoro-4-[4-methyl-2-[4-(4-thiazolyl)phenyl]-1H-imidazol-1-yl]benzenesulfonamide]
236.8 | CS(=O)(=O)c1ccc(C2=C(c3ccc(-c4cscn4)cc3)C(=O)OC2)cc1 [Example 182, 4-[4-(Methylsulfonyl)phenyl]-3-[4-(1,3-thiazol-4-yl)phenyl]-2(5H)-furanone]
180.3 | Cc1cc(C2=C(c3ccc(S(C)(=O)=O)cc3)C(C)(C)OC2=O)ccc1-c1cscn1 [Example 184, 5,5-Dimethyl-3-[3-methyl-4-(1,3-thiazol-4-yl)phenyl]-4-[4-(methylsulfonyl)phenyl]-2(5H)-furanone]
114 to 116 | Cc1cc(-c2noc(C)c2-c2ccc(S(N)(=O)=O)c(F)c2)ccc1-c1cscn1 [Example 188, 2-Fluoro-4-[5-methyl-3-[3-methyl-4-(1,3-thiazol-4-yl)phenyl]-4-isoxazolyl]benzenesulfonamide]
159 | Cc1onc(-c2ccc(S(C)(=O)=O)cc2)c1-c1ccc(-c2cscn2)cc1 [Example 189, 5-Methyl-3-[4-(methylsulfonyl)phenyl]-4-[4-(1,3-thiazol-4-yl)phenyl]isoxazole]
236 | Cc1noc(-c2ccc(-c3cscn3)cc2)c1-c1ccc(S(N)(=O)=O)cc1 [Example 190, 4-[3-Methyl-5-[4-(1,3-thiazol-4-yl)phenyl]-4-isoxazolyl]benzenesulfonamide]
119 | Cc1noc(-c2ccc(S(C)(=O)=O)cc2)c1-c1ccc(-c2cscn2)cc1 [Example 191, 3-Methyl-5-[4-(methylsulfonyl)phenyl]-4-[4-(1,3-thiazol-4-yl)phenyl]isoxazole]
192 to 194 | Cc1nc(-c2ccc(S(N)(=O)=O)c(F)c2)c(-c2ccc(-c3cscn3)cc2)o1 [Example 193, 2-fluoro-4-[2-methyl-5-[4-(1,3-thiazol-4-yl)phenyl]-1,3-oxazol-4-yl]benzenesulfonamide]
122.9 | Cc1cc(-c2cc(C(F)F)nn2-c2ccc(S(C)(=O)=O)c(F)c2)ccc1-c1cscn1 [Example 194, 4-[4-[3-(Difluoromethyl)-1-[3-Fluoro-4-(methylsulfonyl)phenyl]-1H-pyrazol-5-yl]-2-methylphenyl]-1,3-thiazole]
